Patent US9605025B2, “Antagonist peptide of the bond between CD47 and a protein belonging to the thrombospondin family” (Universite de Reims Champagne Ardenne, priority 2011, dated 2017)

Assays:
B16-F1 mouse melanoma = B16-F1 mouse melanoma model in syngeneic C57Bl/6 mice; format: in vivo
Experimental: FIG. 6 is a photo illustration showing the action of the cyclized antagonist peptide on mouse melanoma cells. After a subcutaneous injection of 250,000 B16-F1 mouse melanoma cells into syngeneic C57Bl/6 mice, intraperitoneal administrations of 10 mg/kg of the antagonist were given on days 3, 5 and 7. The mice were then sacrificed and the tumors photographed on day 20.
FIG. 7 is a photo illustration corresponding to an MRI analysis of an untreated tumor (on the left) and a tumor treated with the cyclized peptide of interest on day 12. An arrow points to the necrotic area.
was also tested directly in vivo on a B16-F1 mouse melanoma model injected into syngeneic C57Bl/6 mice.
FIG. 7 allows a comparison, thanks to a magnetic resonance imaging (RMI) analysis, of the tumor taken from the animal not treated with the tumor taken from the animal treated with the cyclized peptide by means of a disulfide bridge on day 12 after the injection of the tumor cells.

TSP1/CD47 complexes = biological target: T1, TSP1/CD47 complexes (Homo sapiens, UniProt P07996); experiment: immunoprecipitation of TSP1/CD47 complexes with anti-CD47 antibody and Western Blot in MDA-MB-231 cells; format: cell-based; settings: MDA-MB-231 breast cancer cells, 100 μM peptide
T1 construct: endogenous in cells; host or cells: MDA-MB-231 breast cancer cells
Experimental: FIG. 5 is a photo illustration showing the inhibition of the biomolecular interaction between the TSP1 and the CD47 receptor of the MDA-MB-231 breast cancer cells. The cells are incubated for 2 hours with […] 100 μM of the antagonist peptide according to the invention. The TSP1/CD47 complexes are then immunoprecipitated using an anti-CD47 antibody, then the presence of TSP1 and CD47 is analyzed using the Western Blot technique.
Thus, MDA-MB-231 cells corresponding to cells from a breast cancer were incubated for 24 hours with or without the dodecapeptide according to this invention. In particular, the peptide used was the one with sequence:
Immunoprecipitation of the complexes, with an antibody directed against the CD47, then an analysis of the TSP1 and CD47 proteins by the Western Blot method were then done.

[1] = tested on: thyroid carcinoma cells (FTC-133); experiment: viability of FTC-133 thyroid carcinoma cells treated with camptothecin or doxorubicin; format: cell-based, human; settings: FTC-133, 5 μM camptothecin or doxorubicin; for viability of the tumor cells: 100 μM peptide
Experimental: FIG. 2 is a graph illustration showing the role of the peptide 4N1 (KRFYVVMWK (SEQ ID NO: 5), derived from the C-terminal domain of TSP1, and the CD47 receptor on the regulation of apoptosis induced by camptothecin (Cpt) or doxorubicin (Dox). To achieve this, thyroid carcinoma cells (FTC-133) were incubated with 5 μM of one or other of the drugs and 100 μM of test peptide 4N1 with or without B6H12 antibody (100 μg/mL) blocking the CD47 receptor. The same experiment was performed with a control peptide 4NGG (KRFYGGMWK SEQ ID NO:6), which is incapable of binding the CD47.
The inventors therefore sought to understand the role of the peptide 4N1 and the CD47 receptor in the inhibition of the apoptosis of cancer cells, and in particular the FTC-133 cells of human thyroid carcinoma (Rath et al., 2006).

[2] = tested on: follicular thyroid carcinoma cells; experiment: caspase-3 activity (marker of apoptosis) in follicular thyroid carcinoma cells treated with camptothecin or doxorubicin; format: cell-based, human; settings: in the presence of doxorubicin or camptothecin, with vs without TSP1
Experimental: FIG. 1 is a graph illustration showing the caspase-3 activity, a marker of apoptosis, obtained by measuring the quantity of para-nitroaniline released per hour per μg of protein (y-axis). The caspase-3 activity is measured on follicular thyroid carcinoma cells in the presence of an anticancer molecule inducing apoptosis, camptothecin (Cpt) or doxorubicin (Dox) in the presence or absence of TSP1.
The latter therefore reduces the rate of apoptosis of the thyroid carcinoma cells subjected to an anti-cancer therapy.

T1 sequence (P07996 19-1170, one chain of several): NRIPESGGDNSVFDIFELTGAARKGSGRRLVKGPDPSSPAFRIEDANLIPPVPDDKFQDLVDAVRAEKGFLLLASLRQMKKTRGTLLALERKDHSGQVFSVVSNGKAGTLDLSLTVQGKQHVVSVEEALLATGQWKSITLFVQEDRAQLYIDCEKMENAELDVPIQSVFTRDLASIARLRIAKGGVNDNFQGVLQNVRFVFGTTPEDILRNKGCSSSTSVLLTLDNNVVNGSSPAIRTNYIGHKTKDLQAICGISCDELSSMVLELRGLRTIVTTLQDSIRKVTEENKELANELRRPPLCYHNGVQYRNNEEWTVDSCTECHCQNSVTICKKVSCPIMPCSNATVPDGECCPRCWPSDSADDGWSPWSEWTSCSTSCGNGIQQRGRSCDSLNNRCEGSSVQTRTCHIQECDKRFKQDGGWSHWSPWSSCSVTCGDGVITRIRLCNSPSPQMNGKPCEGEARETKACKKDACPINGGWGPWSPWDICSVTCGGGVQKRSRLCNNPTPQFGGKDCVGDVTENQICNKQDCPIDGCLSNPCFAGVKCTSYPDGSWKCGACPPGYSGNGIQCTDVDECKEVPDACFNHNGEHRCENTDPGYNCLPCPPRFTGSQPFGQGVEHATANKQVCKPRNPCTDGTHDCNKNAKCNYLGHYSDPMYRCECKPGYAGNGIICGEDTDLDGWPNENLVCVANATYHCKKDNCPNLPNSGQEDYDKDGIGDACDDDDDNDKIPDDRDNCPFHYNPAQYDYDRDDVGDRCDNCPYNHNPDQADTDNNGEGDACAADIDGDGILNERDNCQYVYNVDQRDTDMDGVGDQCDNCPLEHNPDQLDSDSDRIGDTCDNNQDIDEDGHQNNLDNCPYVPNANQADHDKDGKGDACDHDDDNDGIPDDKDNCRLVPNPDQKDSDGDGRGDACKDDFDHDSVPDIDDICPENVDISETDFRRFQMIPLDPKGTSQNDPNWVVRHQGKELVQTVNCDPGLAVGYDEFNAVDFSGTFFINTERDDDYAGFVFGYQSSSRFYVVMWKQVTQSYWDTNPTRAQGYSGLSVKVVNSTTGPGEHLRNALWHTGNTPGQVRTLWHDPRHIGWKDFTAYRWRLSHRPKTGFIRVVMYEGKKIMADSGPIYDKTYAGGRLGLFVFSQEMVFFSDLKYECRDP

Row | Substance | TSP1 detected by Western Blot after immunoprecipitation with anti-CD47 antibody (TSP1/CD47 interaction) (TSP1/CD47 complexes) | viability of the tumor cells [1] | also measured
1 | CEVSQLLKGDAC [SEQ ID NO: 2] | prevents the molecular interaction between the TSP1 protein and the CD47 receptor | – | mice showing a large necrotic area located in the tumor (B16-F1 mouse melanoma; 10 mg/kg intraperitoneal on days 3, 5 and 7, tumors on day 20): 4/8; necrotic area in the tumor by MRI analysis (B16-F1 mouse melanoma; day 12 after the injection of the tumor cells): has a necrotic area
2 | IEVSQLLKGDAS (Antagonist peptide of the bond between a receptor CD47 and a protein belonging to the thrombospondin family) [SEQ ID NO: 1] | TSP1 is no longer detected | – | –
3 | KRFYGGMWK [4NGG] | – | does not have any effect | –
4 | KRFYVVMWK [4N1] | – | viability of the tumor cells is greater | protection of the tumor cells against the anti-cancer drugs ([1]; 100 μM peptide plus B6H12 antibody (100 μg/mL) blocking CD47): no longer protects the tumor cells
5 | TSP1: thrombospondin-1, extracellular matrix glycoprotein binding the CD47 receptor | – | – | caspase-3 activity (para-nitroaniline released per hour per μg of protein) [2]: inhibited considerably
